# Source: PubChem BioAssay AID1963854 (Molecular Pharmacology Branch, DTP, NCI, 2024)
# Test system: 186277-243-T-J2-PDC complex spheroid viability
# Assay: Anticancer human tumor 186277-243-T-J2-PDC patient-derived colon adenocarcinoma cell line growth inhibition [POLQ]
# Details: for IC50: curve of first compound; for viability, T/C: stronger effect = lower value
# Procedure: Multicellular complex tumor spheroid response to Polymerase (POL) inhibitors (novobiocin, ART-558, RP6685) in combination with a variety of drugs and investigational agents in selected tumor cell lines
# The POL inhibitors (novobiocin, ART-558, and RP6685) were evaluated both individually and in combination with standard of care and investigational anticancer small molecules within a complex spheroid model of solid tumors. . Complex spheroids include a stromal component modeled by human endothelial cells (HUVEC) and fibroblasts modeled by human mesenchymal stem cells (MSCs). The concentration ranges selected for each drug and investigational agent were based upon clinically achievable concentrations if the clinical Cmax of the agent was known.
# Compounds. The drugs and investigational agents: novobiocin (NSC847541), ART-558 (NSC835418), RP-6685 (NSC848927), peposertib (NSC802822), ceralasertib (NSC780249), elimusertib (NSC800525), camonsertib (NSC841442), AZD-1390 (NSC803789), olaparib (NSC753686), talazoparib (NSC767125), rucaparib (NSC756644), sotorasib (NSC818433), MRTX-1133 (NSC836407), SN-38 (NSC673596), topotecan (NSC609699), epotoside (NSC141540), doxorubicin (NSC123127), gemcitabine (NSC613327), 5-fluorouracil (NSC19893), paclitaxel (NSC125973), vemurafenib (NSC761431), MSA-2 (NSC828583), SN-011 (NSC837082), adavosertib (NSC754352), prexasertib (NSC758257), carboplatin (NSC241240) and oxaliplatin (NSC266046), were obtained from the National Cancer Institute (NCI) Developmental Therapeutics Program Chemical Repository (21). The FDA-approved anticancer drug set is available from the Developmental Therapeutics Program at https://dtp.cancer.gov/organization/dscb/obtaining/. […] The stock solutions were prepared in dimethyl sulfoxide (DMSO, Sigma-Aldrich, St. Louis, MO, cat. D2650), except for the platinum compounds which were prepared in saline (Quality Biological, Gaithersburg, MD, cat. 114-055-101), at 800-fold the tested concentration and stored at -70 degrees C prior to their use. All drugs and investigational agents were tested over a range starting from a high concentration at or near the clinical Cmax and decreasing in half-log increments. If the clinical Cmax for an agent had not been determined, the highest concentration tested was 10 microM, except for SN-38, which was tested at a high concentration of 1 microM.
# Cell Culture. All cells were maintained in an incubator at 37 degrees C and 5% CO2 with 95% humidity. The PDC lines were cultured according to standard operating procedures established by the NCI PDMR (https://pdmr.cancer.gov). Table 3 of the manuscript, lists the cell lines along with the number of the three cell types plated to form the mct-spheroids and media for tumor cell growth. After thawing, all PDC lines, except 997537-175-T-J1-PDC and 415267-285-R-J2-PDC, were cultured in Matrigel-coated flasks prepared with a working solution of 1X Ham's F-12 nutrient mix, without supplementation (Thermo Fisher Scientific, cat. 11765054), 100 U/mL penicillin-streptomycin (Thermo Fisher Scientific, cat. 15140122), and 2.5% Matrigel (Corning Inc., Corning, NY, cat. 354248) for the first three passages. The two PDC lines 997537-175-T-J1-PDC and 415267-285-R-J2-PDC were cultured on uncoated flasks. The 857933-349-R-J2-PDC line was cultured in 6C/Colon 1B media containing advanced DMEM/F-12 (Thermo Fisher Scientific, cat. 12634028), 10 mM HEPES (Thermo Fisher Scientific, cat. 15630080), 1X GlutaMAX supplement (Thermo Fisher Scientific, cat. 35050061), 0.1 mg/mL primocin (InvivoGen, San Diego, CA, cat. ant-pm-2), 10% defined fetal bovine serum, heat inactivated (HyClone Laboratories Inc., Logan, UT, cat. SH30070.03HI), 50% L-WRN conditioned media (ATCC, cat. CRL-3276), 1.25 mM N-Acetyl-L-cysteine (Sigma-Aldrich, cat. A9165), 10 mM nicotinamide (Sigma-Aldrich, cat. N0636), 1X B-27 supplement (Thermo Fisher Scientific, cat. 17504044), 1X N-2 supplement (Thermo Fisher Scientific, cat. […]
# 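Also: spheroids exposed to compounds for seven days.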
# 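For viability, T/C in this document: 100% = DMSO vehicle control viability.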
smiles,measurement,setting,value
COc1cccc2c1C(=O)c1c(O)c3c(c(O)c1C2=O)CC(O)(C(=O)CO)CC3OC1CC(N)C(O)C(C)O1 (configuration not stated) + Cc1cccc(N(C)C(=O)C2C(O)CCN2c2nc(C)cc(C(F)(F)F)c2C#N)c1,IC50,second compound 0.0316 µM,106 nM
same,IC50,second compound 0.1 µM,116 nM
same,IC50,second compound 0.316 µM,114 nM
same,IC50,second compound 1 µM,120 nM
same,IC50,second compound 3.16 µM,119 nM
same,IC50,second compound 10 µM,76.6 nM
same,"viability, T/C","second compound 0.0316 µM, first compound 0.0316 µM",104%
same,"viability, T/C","second compound 0.0316 µM, first compound 0.1 µM",52.1%
same,"viability, T/C","second compound 0.0316 µM, first compound 0.316 µM",10.2%
same,"viability, T/C","second compound 0.0316 µM, first compound 1 µM",0.23%
same,"viability, T/C","second compound 0.0316 µM, first compound 3.16 µM",0.15%
same,"viability, T/C","second compound 0.0316 µM, first compound 10 µM",0.39%
same,"viability, T/C","second compound 0.1 µM, first compound 0.0316 µM",107%
same,"viability, T/C","second compound 0.1 µM, first compound 0.1 µM",55.6%
same,"viability, T/C","second compound 0.1 µM, first compound 0.316 µM",11.1%
same,"viability, T/C","second compound 0.1 µM, first compound 1 µM",0.24%
same,"viability, T/C","second compound 0.1 µM, first compound 3.16 µM",0.11%
same,"viability, T/C","second compound 0.1 µM, first compound 10 µM",0.45%
same,"viability, T/C","second compound 0.316 µM, first compound 0.0316 µM",96.9%
same,"viability, T/C","second compound 0.316 µM, first compound 0.1 µM",55.2%
same,"viability, T/C","second compound 0.316 µM, first compound 0.316 µM",10.3%
same,"viability, T/C","second compound 0.316 µM, first compound 1 µM",0.56%
same,"viability, T/C","second compound 0.316 µM, first compound 3.16 µM",0.14%
same,"viability, T/C","second compound 0.316 µM, first compound 10 µM",0.43%
same,"viability, T/C","second compound 1 µM, first compound 0.0316 µM",95.7%
same,"viability, T/C","second compound 1 µM, first compound 0.1 µM",57%
same,"viability, T/C","second compound 1 µM, first compound 0.316 µM",12%
same,"viability, T/C","second compound 1 µM, first compound 1 µM",0.45%
same,"viability, T/C","second compound 1 µM, first compound 3.16 µM",0.16%
same,"viability, T/C","second compound 1 µM, first compound 10 µM",0.7%
same,"viability, T/C","second compound 3.16 µM, first compound 0.0316 µM",89.3%
same,"viability, T/C","second compound 3.16 µM, first compound 0.1 µM",57.4%
same,"viability, T/C","second compound 3.16 µM, first compound 0.316 µM",9.06%
same,"viability, T/C","second compound 3.16 µM, first compound 1 µM",0.16%
same,"viability, T/C","second compound 3.16 µM, first compound 3.16 µM",1.06%
same,"viability, T/C","second compound 3.16 µM, first compound 10 µM",0.34%
same,"viability, T/C","second compound 10 µM, first compound 0.0316 µM",76.3%
same,"viability, T/C","second compound 10 µM, first compound 0.1 µM",42.1%
same,"viability, T/C","second compound 10 µM, first compound 0.316 µM",3.48%
same,"viability, T/C","second compound 10 µM, first compound 1 µM",0.3%
same,"viability, T/C","second compound 10 µM, first compound 3.16 µM",0.5%
same,"viability, T/C","second compound 10 µM, first compound 10 µM",0.36%
